pEC50: −log10 of the molar value. In brackets after ≈: the same amount, converted by molar mass. Read-outs that look alike come from different tables or passages of the source.
Assays:
[1] = Hepatic microsomal stability, human; conditions: human liver microsomes
PrP^C in T98G cells = type: cell-based, human
T98G cells = experiment: cells; type: cell-based, human; conditions: Homo sapiens, T98G, read-out: EC50 (μM) Calcein
[2] = Hepatic microsomal stability, mouse; conditions: mouse liver microsomes
N2a-cl3 cells = conditions: mouse
[3] = Single-dose pharmacokinetics in FVB mice (oral gavage, IV); conditions: single oral dose 10 mg/kg; for Brain/Plasma AUClast Ratio: FVB mice; for AUClast ± SD, Brain / AUClast ± SD, Plasma: two FVB mice
[4] = system: PrP^Sc in ScN2a-cl3 cells; type: cell-based, mouse; conditions: Western immunoblots
in vitro = conditions: mouse
[5] = system: PrP^Sc in dividing ScN2a-cl3 cells; type: cell-based, mouse; conditions: for EC50: dividing ScN2a-cl3 cells
[6] = system: PrP^Sc in dividing ScN2a-c13 cells; conditions: dividing ScN2a-c13 cells
[7] = pH 1.2, simulated gastric fluid
[8] = read-out: EC50 (nM): Western, ScN2a-cl3 cells
[9] = read-out: Potency (nM) Western (EC50), dividing ScN2a-cl3 cells
[10] = read-out: Potency (nM) ELISA (EC50), PrP^Sc ELISA

| Compound | solubility (physchem; [7]) [µM] | solubility (physchem; pH 7.4, aqueous buffer) [µM] | EC50 (nM): Calcein (LC50 values from calcein assays) (N2a-cl3 cells) | EC50 [4, 8] [nM] | EC50 [4, 9] [nM] | CC50 (in vitro) [nM] | EC50 ([5]; read-out: EC50 (nM): ELISA) [nM] | EC50 [5, 10] [nM] | further results |
| --- | --- | --- | --- | --- | --- | --- | --- | --- | --- |
| O=C(Cc1ccc(-c2ccccc2)cc1)NCc1ccccc1 [IND116065] |  |  |  |  |  |  |  |  | Hepatic Extraction Ratio Human ([1]; predicted hepatic extraction): 0.86; half-life at 1 μM ([1]; human, pH 7.4): 11.1 min; Potency relative to the bromo analog (IND61769) (PrP^C in T98G cells): 10 times; EC50 (PrP^C in T98G cells; read-out: EC50 (μM) ELISA): 0.267 µM; EC50 (PrP^C in T98G cells; read-out: EC50 (μM) ELISA potency, PrP^C in T98G cells): 0.233 µM; EC50 (T98G cells): > 10 µM; Hepatic Extraction Ratio Mouse ([2]; predicted hepatic extraction): 0.83; half-life at 1 μM ([2]; mouse, pH 7.4): 12.3 min |
| Cc1cccc(Nc2nc(-c3ccc(-c4ccc[n+]([O-])c4)cc3)cs2)n1 [IND-0116097] | 49 (≈ 17.7 µg/mL) | 5.1 (≈ 1.84 µg/mL) |  |  |  |  |  |  |  |
| O=C(Cc1ccc(Br)cc1)NCc1ccccc1 [IND61769] |  |  |  |  |  |  |  |  | EC50 (PrP^C in T98G cells; read-out: EC50 (μM) ELISA): 2.33 µM; EC50 (T98G cells): > 10 µM |
| Cc1cccc(Nc2nc(-c3ccc(-c4cc[n+]([O-])cc4)cc3)cs2)n1 [IND-0116092] | 17.6 (≈ 6.34 µg/mL) | 15.2 (≈ 5.48 µg/mL) |  |  |  |  |  |  |  |
| O=C(Cc1ccc(Cl)cc1)NCc1ccccc1 [IND126416] |  |  |  |  |  |  |  |  | EC50 (PrP^C in T98G cells; read-out: EC50 (μM) ELISA): > 10 µM; pEC50 (PrP^C in T98G cells; read-out: EC50, PrP^C ELISA in T98G cells): < 5.00; EC50 (T98G cells): > 10 µM |
| Cc1cccc(Nc2nc(-c3ccc(-c4ccc(N5CCN(C)CC5)nc4)cc3)cs2)n1 [IND-0116103] | 37.1 (≈ 16.4 µg/mL) | 4.4 (≈ 1.95 µg/mL) |  |  |  |  |  |  |  |
| N#Cc1sc2nc(-c3ccc4c(c3)OCO4)ccc2c1N [IND-0052851] |  |  | MW: 295.3 EC50 (nM): ELISA: 962 Calcein: >10,000 Western: 518 | 518 | 518 | > 10000 | 962 | 962 | Brain/Plasma AUClast Ratio [3]: 2.59; AUClast ± SD, Brain [3]: 2.12 ± 0.93 µM·h; AUClast ± SD, Plasma [3]: 0.82 ± 0.31 µM·h |
| Cc1[nH]c2ccccc2c1-c1csc(-c2cccnc2)n1 [IND-0024352] |  |  | MW: 291.4 EC50 (nM): ELISA: 2267 Calcein: >10,000 Western: 1698 | 1700 | 1700 | > 10000 | 2270 | 2270 |  |
| COCCOc1cccc(Nc2nc(-c3ccc(-c4ccccc4)cc3)cs2)n1 [IND-0116102] | 2.1 (≈ 0.847 µg/mL) | 2.7 (≈ 1.09 µg/mL) |  |  |  |  |  |  |  |
| CN(C)CCNc1nc(-c2ccc(Cl)cc2)nc2ccccc12 [IND-0034921] |  |  | MW: 326.8 EC50 (nM): ELISA: 3693 Calcein: >10,000 Western: 2009 | 2010 | 2010 | > 10000 | 3690 | 3690 |  |
| COc1cc(N)c(-c2ccc3cc(OC)c(OC)cc3n2)cc1OC [IND-0044355] |  |  | MW: 340.4 EC50 (nM): ELISA: 2143 Calcein: >10,000 Western: 1833 | 1830 | 1830 | > 10000 | 2140 | 2140 |  |
| Cc1cccc(Nc2nc(-c3ccc(-c4ccc(N(C)C)nc4)cc3)cs2)n1 [IND-0116044] | 77.1 (≈ 29.9 µg/mL) | 14.3 (≈ 5.54 µg/mL) |  |  |  |  |  |  |  |
| Cn1c(=N)n(CC(=O)c2ccc(Br)cc2)c2ccccc21 [IND-0044723] |  |  | MW: 344.2 EC50 (nM): ELISA: 1983 Calcein: >10,000 Western: 1453 | 1450 | 1450 | > 10000 | 1980 | 1980 |  |
| Cc1cccc(Nc2nc(-c3ccc(-c4ccnc(N5CCN(C)CC5)c4)cc3)cs2)n1 [IND-0116134] | 81.8 (≈ 36.2 µg/mL) | 40.2 (≈ 17.8 µg/mL) |  |  |  |  |  |  |  |
| Oc1ccc(/C=C/c2cc(O)cc(O)c2)cc1 [IND-0047971] |  |  | MW: 228.2 EC50 (nM): ELISA: 2260 Calcein: >10,000 Western: 584 | 584 | 584 | > 10000 | 2260 | 2260 |  |
| CN1CCN(c2ccc(Nc3ccnc4cc(Cl)ccc34)cc2)CC1 [IND-0045193] |  |  | MW: 352.9 EC50 (nM): ELISA: 1220 Calcein: >10,000 Western: 2073 | 2070 | 2070 | > 10000 | 1220 | 1220 | Brain/Plasma AUClast Ratio [3]: 4.72; AUClast ± SD, Brain [3]: 7.36 ± 0.78 µM·h; AUClast ± SD, Plasma [3]: 1.56 ± 0.31 µM·h |
| CCc1ccc(-c2cn3cc(C)sc3n2)cc1 [IND-0009416] |  |  | MW: 242.3 EC50 (nM): ELISA: 1776 Calcein: >10,000 Western: 517 | 517 | 517 | > 10000 | 1780 | 1780 |  |
| CN(C)c1cc(-c2ccc(-c3csc(NC(=O)C4CC4)n3)cc2)ccn1 [IND- 116123] | > 150 | < 0.5 |  |  |  |  |  |  |  |
| COc1ccc(CC(=O)NCc2ccccc2)cc1 [IND6612] |  |  |  |  |  |  |  |  | Potency relative to the bromo analog (IND61769) (PrP^C in T98G cells): equal potency to the bromo analog; EC50 (PrP^C in T98G cells; read-out: EC50 (μM) ELISA): 3.36 µM; EC50 (T98G cells): > 10 µM |
| CCc1ccc(-c2cn3cc(C)ccc3n2)cc1 [IND-0009419] |  |  | MW: 236.3 EC50 (nM): ELISA: 709 Calcein: >10,000 Western: 265 | 265 | 285 | > 10000 | 709 | 709 |  |
| CC(=O)c1ccc(N2CCN(Cc3ccccc3)CC2)cc1 [IND-0019136] |  |  | MW: 294.4 EC50 (nM): ELISA: 8681 Calcein: >10,000 Western: 615 | 615 | 615 | > 10000 | 8680 | 8680 |  |
| COc1ccc(-c2cc(-c3ccc(C)cc3O)[nH]n2)cc1 [IND-0028801] |  |  | MW: 280.3 EC50 (nM): ELISA: 245 Calcein: >10,000 Western: 117 | 117 | 117 | > 10000 | 245 | 245 |  |
| COCCOc1ccc(-c2ccc(-c3csc(Nc4cccc(C)n4)n3)cc2)cn1 [IND-0116094] | 62.8 (≈ 26.3 µg/mL) | 2.2 (≈ 0.921 µg/mL) |  |  |  |  |  |  |  |
| CC(=O)c1ccc(NC(=O)c2sc3nc4c(cc3c2N)CCCC4)cc1 [IND-0024609] |  |  |  |  |  |  |  |  | antiprion activity (in words) [6]: inactive; pEC50 ([5]; read-out: Antiprion activity EC50, thienopyridine analogs): < 5.00 |
| O=C(Nc1nc(-c2ccc(-c3ccccc3)cc2)cs1)C1CC1 [IND-0030410] | 17.7 (≈ 5.67 µg/mL) | 12.7 (≈ 4.07 µg/mL) | MW: 320.4 EC50 (nM): ELISA: 317 Calcein: >10,000 Western: 194 | 194 | 194 | > 10000 | 317 | 317 |  |
| Cc1cccc(Nc2nc(-c3ccc(-c4ccc(OC(C)C)nc4)cc3)cs2)n1 [IND-0116091] | 13.1 (≈ 5.27 µg/mL) | 3.2 (≈ 1.29 µg/mL) |  |  |  |  |  |  |  |
| N#Cc1ccc(/C=C/c2ccc(F)cc2)cc1 [IND-0047979] |  |  | MW: 223.3 EC50 (nM): ELISA: 1700 Calcein: >10,000 Western: 528 | 528 | 528 | > 10000 | 1700 | 1700 |  |
